Data on 13 compounds can be found in ChEMBL document CHEMBL1201862, “PubChem BioAssay data set” (2004).

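Cultured in 96-well plates, cells were exposed to test compound for 48 hours across five concentrations. GI50 marks 50% less growth.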 Activity calls are given as the source filed them. Cut-off read from the data, not from the text of the source: active = GI50 up to about 1.1 µM and inactive = higher.

Holding throughout (experiment): growth of human tumour cells (NCI), 48 h
For assay [1], the system named is SK-OV-3.
The subject of assay [2] is SK-MEL-5.
For assay [3], the system named is OVCAR-4.
For assay [4], the system named is HCC 2998.
The subject of assay [5] is HT-29.
For assay [6], the system named is SNB-75.
The test system of assay [7] is NCI-H23.
Assay [8] deals with A549.
In assay [9] the test system is EKVX.
For assay [10], the system named is TK-10.
The test system of assay [11] is ACHN.
Assay [12] deals with HOP-92.
Assay [13] relates to KM12.
Assay [14] concerns HCT-15.
Assay [15] concerns IGROV-1.
In assay [16] the test system is HOP-62.
Assay [17] has as its system DU-145.
Assay [18] has as its system T47D.
In assay [19] the test system is MDA-MB-435.

As for `CN(C)CCNC(=O)c1cccc2ccc(-c3ccc(-c4ccccc4)cc3)nc12`, the GI50 in assay [1] was 17 µM (inactive); in [2] it was 1.72 µM (inactive); in [3], 2.72 µM (inactive); in assay [4] it was 1.83 µM (inactive); in assay [5] it was 1.75 µM (inactive); in [6], 2.88 µM (inactive). Also, the GI50 in [7] was 5.69 µM (inactive); in assay [8] it was 2.89 µM (inactive); in [9], 8.17 µM (inactive); in assay [10] it was 4.48 µM (inactive); in assay [11], 5.47 µM (inactive); in assay [12] it was 3.02 µM (inactive). The GI50 was 2.09 µM (inactive) in [13], 1.98 µM in assay [14], 12.6 µM (inactive) in assay [15] and 3.3 µM (inactive) in assay [16].
As to `CCN(CC)c1ccc(/N=C2/C=CC(=O)c3ncccc32)c(C)c1`, the GI50 in [1] is 20 µM (inactive); in [2] it was 5.53 µM (inactive); in assay [3] it was 2.11 µM (inactive); in [4] it was 11.7 µM (inactive); in assay [5], 15.1 µM (inactive); in assay [6], 14.8 µM (inactive). The GI50 was 5.94 µM (inactive) in [7]; 11.2 µM (inactive) in [8]; 16.6 µM (inactive) in [9]; 16.3 µM (inactive) in assay [10]; 3.92 µM (inactive) in assay [11]; 6.75 µM (inactive) in assay [12]. Also, the GI50 in assay [13] was 13.8 µM (inactive); in [14], 3.08 µM; in assay [15], 6.65 µM (inactive); in [16], 20.2 µM (inactive).
As to `CNC(=O)CCCNC(=O)CCCCC(=O)N(C)C`, the GI50 in [1], in assay [2], in [3], in assay [5], in assay [7] and in [17] was > 100 µM (inactive) each time. Also, the GI50 in [18], in assay [8], in assay [10], in [11], in assay [13] and in assay [16] was > 100 µM (inactive) in each case. Also, in assay [19], the GI50 is > 100 µM (inactive).
Consider `COC(=O)NC(=O)c1cn(CCCOC(=O)CCCCCCCCC(=O)OCCCn2cc(C(=O)NC(=O)OC)c(=O)[nH]c2=O)c(=O)[nH]c1=O`, for which the GI50 was > 100 µM (inactive) in [2]; > 100 µM (inactive) in [3]; > 100 µM (inactive) in assay [4]; > 100 µM (inactive) in [5]; 22.3 µM (inactive) in assay [6]; 39.3 µM (inactive) in [7]. Moreover, the GI50 is > 100 µM (inactive) in assay [8]; 55.2 µM (inactive) in assay [9]; 36.8 µM (inactive) in assay [10]; > 100 µM (inactive) in assay [11]; 36.7 µM (inactive) in [12]; > 100 µM (inactive) in assay [13]. The GI50 is above 100 µM in assay [14], 85.1 µM (inactive) in assay [15] and 23.1 µM (inactive) in assay [16].
Turning to `CCOc1c(Br)cc(Br)cc1C=C(C#N)C#N`, the GI50 in assay [1] was > 10 µM (inactive); in assay [2], 3.61 µM (inactive); in assay [3], > 10 µM (inactive); in assay [4], > 10 µM (inactive); in assay [5] it was > 10 µM (inactive); in assay [6], 7.62 µM (inactive). Also, the GI50 was > 10 µM (inactive) in assay [7]; > 10 µM (inactive) in [18]; > 10 µM (inactive) in [8]; > 10 µM (inactive) in assay [9]; 5.43 µM (inactive) in assay [10]; 2.77 µM (inactive) in assay [11]. Moreover, the GI50 is 4.19 µM (inactive) in assay [12]; 5.93 µM (inactive) in assay [13]; 2.96 µM in [14]; 4.29 µM (inactive) in assay [15]; > 10 µM (inactive) in assay [16]; 4.18 µM (inactive) in assay [19].
For `O=c1c2cc(Br)cc(Br)c2[nH]c(=S)n1-c1ccccc1`, the GI50 in [1] was > 100 µM (inactive); in assay [2] it was 54.8 µM (inactive); in assay [3], 86.3 µM (inactive); in [4] it was 92.5 µM (inactive); in assay [5] it was > 100 µM (inactive); in assay [6], 32.1 µM (inactive). For the same compound, the GI50 is 28.4 µM (inactive) in assay [7]; 63.1 µM (inactive) in [8]; 58.1 µM (inactive) in assay [9]; 78.3 µM (inactive) in assay [10]; > 100 µM (inactive) in assay [11]; 28.9 µM (inactive) in assay [12]. For the same compound, the GI50 in assay [13] is > 100 µM (inactive); in assay [14], 90.2 µM; in [15], > 100 µM (inactive); in assay [16] it was 88.5 µM (inactive).
Regarding `CCOC(=O)NC(=O)c1cn(CCCO)c(=O)[nH]c1=O`, the GI50 in assay [1] is > 100 µM (inactive); in assay [2], > 100 µM (inactive); in assay [3], > 100 µM (inactive); in [4], > 100 µM (inactive); in assay [5] it was > 100 µM (inactive); in assay [6], 45.6 µM (inactive). For the same compound, the GI50 in [7], in [8], in [9], in assay [10], in assay [11] and in assay [12] was > 100 µM (inactive) in each case. The GI50 is > 100 µM (inactive) in assay [13], above 100 µM in assay [14], > 100 µM (inactive) in assay [15] and > 100 µM (inactive) in assay [16].
As for `CN(CCN(C)C(=O)CCOS(C)(=O)=O)C(=O)CCOS(C)(=O)=O`, the GI50 in assay [1], in assay [2], in assay [3], in [4], in assay [5] and in assay [6] was > 100 µM (inactive) each time. In addition, the GI50 in [7], in assay [8], in assay [9], in assay [10], in assay [11] and in [12] was > 100 µM (inactive) in each case. Further, the GI50 was > 100 µM (inactive) in [13], above 100 µM in assay [14], > 100 µM (inactive) in assay [15] and 59 µM (inactive) in [16].
For the compound `CSc1nc(NC2OCC(OC(C)=O)C(OC(C)=O)C2OC(C)=O)c2c(OC(C)=O)c(C)c(=O)oc2n1` (stereo unspecified), the GI50 in assay [1], in assay [2], in [3], in [4], in assay [5] and in assay [6] was > 100 µM (inactive) each time. The GI50 in assay [7] was > 100 µM (inactive); in [8], > 100 µM (inactive); in [9], > 100 µM (inactive); in assay [10], > 100 µM (inactive); in assay [11] it was > 100 µM (inactive); in assay [12], 71.6 µM (inactive). Further, the GI50 in assay [13] is > 100 µM (inactive); in assay [14], above 100 µM; in assay [15], > 100 µM (inactive); in assay [16], > 100 µM (inactive).
As for `C=CCNC(=S)N/C=C(\C#N)C(N)=O`, the GI50 in [1], in assay [2], in assay [3], in assay [4], in assay [5] and in assay [6] was > 100 µM (inactive) throughout. The GI50 in assay [7], in [17], in [18], in assay [8], in assay [9] and in [11] was > 100 µM (inactive) in each case. The GI50 was > 100 µM (inactive) in [13]; above 100 µM in [14]; > 100 µM (inactive) in assay [15]; > 100 µM (inactive) in assay [16]; > 100 µM (inactive) in assay [19].
For the compound `CSc1nc2[nH]c(=O)c(C)nc2c(=O)[nH]1`, the GI50 in assay [1], in [2], in assay [3], in assay [4], in [5] and in [6] was > 100 µM (inactive) each time. Moreover, the GI50 in assay [7], in assay [8], in assay [9], in [10], in assay [11] and in assay [12] was > 100 µM (inactive) each time. Moreover, the GI50 in assay [13] was > 100 µM (inactive); in assay [14], above 100 µM; in assay [15], > 100 µM (inactive); in assay [16], > 100 µM (inactive).
On to `COC(=O)C1C(=O)O[C@@H](c2ccc(OC)cc2)C1C(=O)OC` (stereo partly specified), for which the GI50 in [1], in assay [2], in [3], in [4], in assay [5] and in [6] was > 100 µM (inactive) in each case. In addition, the GI50 in assay [7], in assay [8], in assay [9], in assay [10], in [11] and in assay [12] was > 100 µM (inactive) each time. Further, the GI50 in assay [13], in assay [15] and in assay [16] was > 100 µM (inactive) each time.
For `CCOC(=O)N1C(=O)C2C3C=CC(C2C1=O)C1C2C(=O)N(C(=O)OCC)C(=O)C2C31` (stereo unspecified), the GI50 is > 100 µM (inactive) in [1]; > 100 µM (inactive) in assay [2]; > 100 µM (inactive) in assay [3]; > 100 µM (inactive) in [4]; > 100 µM (inactive) in assay [5]; > 92 µM (inactive) in [6]. Moreover, the GI50 in assay [7], in assay [8], in [9], in assay [10], in assay [11] and in assay [12] was > 100 µM (inactive) throughout. Besides, the GI50 in assay [13] was > 100 µM (inactive); in [14] it was above 47.2 µM; in assay [15], > 100 µM (inactive); in assay [16] it was > 100 µM (inactive).
